Data as given in publication PMC8748916, “Microbial enzymes induce colitis by reactivating triclosan in the mouse gastrointestinal tract” (Nature Communications, 2022).
Several values for one entry are separate records, joined by “and”; a condition that tells them apart may be missing. Equal entries are not always repeated.

Legend:
[1] = Antibiotic suppression of gut microbiota: kinetics of TCS colonic metabolism after one-time oral gavage; settings: within the 24-h period; 8 mg/kg TCS oral gavage
[2] = TCS colonic metabolism in conventional vs germ-free Swiss Webster mice; format: in vivo; settings: 6 h after oral gavage of 8 mg/kg TCS, individual mice
[3] = LC-MS/MS profiling of TCS metabolism in mice (TCS via diet for 4 weeks); settings: for concentration of free TCS in the colon digesta: mean; for concentration of TCS, TCS-G, TCS-Sulfate: individual mice
[4] = Target engagement: GUSi in colon tissue and TCS to TCS-G ratio in colon digesta by LC-MS/MS; format: in vivo, mice; settings: TCS-treated mice, no GUSi, individual mice
Experimental: (§1) After another 3 weeks, the mice were stimulated with 2% DSS (molecular weight = 36–50 KDa, MP Biomedicals, Solon, OH) in drinking water for 6 days to induce colitis. At end of the experiment, the mice were sacrificed for analysis.
Fig. S15. Orally dosed GUSi reaches the mouse colon and suppresses conversion of TCS -G to TCS. a.
mice were stimulated with DSS to induce colitis. The final GUSi was dosed on day 25 and mice were sacrificed
for analysis on day 27. b. GUSi is detected in the mouse colon 2 days after the final dose of the inhibitor. c.
GUSi treatment reduces the ratio of TCS to TCS-G in colon digesta.
per group. NA: no TCS or TCS-G detected.

[5] = test system: DSS-induced colitis; experiment: DSS-induced colitis in mice: TCS with or without GUSi (colon length, histology, FACS, qRT-PCR); format: in vivo
Source text: as §1
Total RNA of colon tissues and MC38 cells were isolated using Trizol reagent (Ambion) according to the manufacturer’s instruction. RNA was reverse transcribed into cDNA using the High Capacity cDNA Reverse Transcription kit (Applied Biosystem) according to the manufacturer’s instructions. In all, 20 μL PCR reactions were prepared using the Maxima SYBR Green Master Mix (Thermo Fisher Scientific), and qPCR was carried out using a DNA Engine Opticon System (Bio-Rad Laboratories). Mouse-specific primer sequences (Thermo Fisher Scientific) used to detect inflammatory biomarkers are listed in Supplementary Table S6. Gapdh expression was used as an internal control.
Distal colon tissues were dissected, washed with cold PBS, and digested with Hank’s balanced salt solution (HBSS, Lonza) supplemented with 1 mM dithiothreitol (DTT) and 5 mM EDTA at 4 °C (colon […] cells). The released cells were stained with FITC-conjugated anti-mouse CD45 (BioLegend, Clone: 30-F11), PerCP/Cy5.5-conjugated anti-mouse F4/80 (BioLegend, Clone: BM8), and PE/Cy7-conjugated anti-mouse Ly-6G/Ly-6C (GR-1) (BioLegend, Clone: RB6-8C5) with a 1:100 diluted solution. Cells were stained with Zombie Violet^TM dye (Zombie Violet^TM Fixable Viability Kit; BioLegend) according to the manufacturer’s instructions to exclude dead cells. Gating and cell identification strategies are as follows: briefly, cell doublets and clumps were eliminated using FSC-A gating and debris was eliminated using FSC-A vs SSC-A. Dead cells were gated out using Zombie Violet™ dye. Flow cytometry data were acquired on a BD LSR Fortessa^TMcell analyzer (Becton Dickinson, Franklin Lakes, NJ) and analyzed using FlowJo software (FlowJo, LLC). Gating strategies used for the identification of major immune cell populations are shown in Supplementary Fig. S17.
The dissected colon tissues were fixed in 10% neutral buffered formalin (Thermo Fisher Scientific) for 48 h. After dehydration, the tissues were embedded in paraffin and sliced ([…]) by Rotary Microtome (Thermo Fisher Scientific). The slices were dewaxed in serial xylene and rehydrated through ethanol solutions, stained with hematoxylin and eosin (Sigma-Aldrich), and images were obtained under 200× magnification (BZ-X700 microscope, Keyence, Itasca, IL). The histologic scores were evaluated by a blinded observer according to the following measures: crypt architecture, degree of inflammatory cell infiltration, muscle thickening, goblet cell depletion, and crypt abscess. The histologic damage score is the sum of each individual score.

[6] = Antibiotic suppression of gut microbiota: TCS colonic metabolism in mice (80 ppm TCS diet, 4 weeks); format: in vivo; settings: 80 ppm TCS via diet 4 weeks; antibiotic cocktail vs none
Source text: This antibiotic composition was used in previous studies by others[20],[21] and us[22],[23]. […] After another 4 weeks, the mice were sacrificed, and their tissues were collected for LC-MS/MS analysis.

[7] = LC-MS/MS of TCS and its metabolites in human stool and urine after use of TCS-containing personal care products; format: in vivo; settings: for TCS metabolites in human stool / TCS metabolites in human urine: Treatment TCS, individual subjects;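 for Profile in stool (%): molar share of summed TCS plus TCS-G plus TCS-sulfate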;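 for Profile in urine (%): molar share of summed TCS plus TCS-G plus TCS-sulfate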;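 for average molar concentration ratio: molar share of summed TCS plus TCS-G plus TCS-sulfate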
Source text: To broaden our understanding of TCS metabolic profiles in the gut, we next analyzed TCS metabolism in human subjects. We utilized urine and stool samples from a previous study in which the recruited human subjects were first subjected to a washout period (no usage of TCS-containing products), then were randomly assigned to two groups that used personal care products like toothpaste with or without TCS for up to four months (see the scheme of the experiment in Fig. 1c)[15]. Previous data had established that humans are primarily exposed to TCS via toothpaste that provides a direct oral route to the gastrointestinal tract[16],[17].

[8] = 80 ppm TCS via diet vs vehicle, DSS-induced colitis, without GUSi
[9] = DSS colitis mice, FACS, individual animals, Fig.5d
[10] = DSS colitis mice, gene expression, individual animals, Fig.5e
[11] = treatment time 0 months (after washout)
[12] = human stool, TCS-exposed subjects
[13] = human urine, TCS-exposed subjects

## Oc1cc(Cl)ccc1Oc1ccc(Cl)cc1Cl [TCS, Triclosan]
[1]
  reduction of AUC in colon digesta by antibiotic treatment: ~ 40%
[2]; CONV Swiss Webster mice
  tcs, tcs-G in colon digesta: 35.08 pmol/mg and 44.23 pmol/mg and 53.2 pmol/mg and 70.03 pmol/mg and 36.57 pmol/mg and 25.88 pmol/mg and 61.48 pmol/mg and 14.87 pmol/mg
[2]; GF Swiss Webster mice
  tcs, tcs-G in colon digesta: 1.71 pmol/mg and 1.97 pmol/mg and 2.79 pmol/mg and 1.05 pmol/mg and 1.69 pmol/mg
[3]; 1 ppm TCS in diet 4 weeks
  concentration of free TCS in the colon digesta: 1.5 pmol/mg tissue
[3]; 10 ppm TCS in diet 4 weeks
  concentration of free TCS in the colon digesta: 14.7 pmol/mg tissue
[3]; 80 ppm TCS in diet 4 weeks
  concentration of free TCS in the colon digesta: 92.2 pmol/mg tissue
[3]; Cecum (digesta), 80 ppm TCS via diet 4 weeks
  concentration of TCS, TCS-G, TCS-Sulfate: 109.26 pmol/mg and 94.56 pmol/mg and 76.97 pmol/mg
[3]; Feces, 10 ppm TCS in diet 4 weeks
  concentration of TCS, TCS-G, TCS-Sulfate: 22.61 pmol/mg and 75.8 pmol/mg
[3]; Feces, 80 ppm TCS in diet 4 weeks
  concentration of TCS, TCS-G, TCS-Sulfate: 290.88 pmol/mg and 142.03 pmol/mg
[3]; Heart, 80 ppm TCS via diet 4 weeks
  concentration of TCS, TCS-G, TCS-Sulfate: 0.98 pmol/mg and 0.71 pmol/mg and 0.63 pmol/mg
[3]; SI 1st section (digesta), 80 ppm TCS via diet 4 weeks
  concentration of TCS, TCS-G, TCS-Sulfate: 15.09 pmol/mg and 9.94 pmol/mg and 15.65 pmol/mg and 19.61 pmol/mg
[3]; SI 2nd section (digesta), 80 ppm TCS via diet 4 weeks
  concentration of TCS, TCS-G, TCS-Sulfate: 19.75 pmol/mg and 18.37 pmol/mg and 9.51 pmol/mg and 14.12 pmol/mg and 15.69 pmol/mg and 13.92 pmol/mg and 18.94 pmol/mg and 9.21 pmol/mg and 13.42 pmol/mg and 3.48 pmol/mg
[3]; SI 3rd section (digesta), 80 ppm TCS via diet 4 weeks
  concentration of TCS, TCS-G, TCS-Sulfate: 29.24 pmol/mg and 24.80 pmol/mg and 7.10 pmol/mg and 13.01 pmol/mg and 17.21 pmol/mg and 23.02 pmol/mg and 19.18 pmol/mg and 15.52 pmol/mg and 17.98 pmol/mg and 27.55 pmol/mg
[3]; SI 4th section (digesta), 80 ppm TCS via diet 4 weeks
  concentration of TCS, TCS-G, TCS-Sulfate: 31.18 pmol/mg and 38.07 pmol/mg and 17.93 pmol/mg and 37.99 pmol/mg and 55.42 pmol/mg and 35.20 pmol/mg and 31.30 pmol/mg and 21.74 pmol/mg and 18.77 pmol/mg and 46.26 pmol/mg
[3]; digesta of the 4th section of the mouse small intestine, 80 ppm TCS via diet 4 weeks
  share of TCS metabolites found: 36.9%
[3]; fecal content, 80 ppm TCS via diet 4 weeks
  share of TCS metabolites found: 99.1%
[3]; gut sections (colon digesta, cecum digesta, feces), 1, 10 and 80 ppm TCS via diet 4 weeks
  share of detected TCS species present as free TCS: 94-100%
[4]
  TCS/TCSG in colon digesta: 69.2572 and 105.161 and 114.057 and 134.536 and 118.012 and 116.121 and 236.945 and 380.254 and 130.474 and 139.078
[5]; [8]
  colon length: reduced
  colonic infiltration of immune cells (CD45+ leukocytes, CD45+ F4/80+ macrophages, CD45+ Gr1+ neutrophils): enhanced
  crypt damage: more severe
  expression of pro-inflammatory genes (Tnf-a, Mcp-1, Il-6, Il-17, Il-23) in the colon: increased
[5]; [9]
  cd45+(%): 13.9% and 7.52% and 6.6% and 9.17% and 14.3% and 13.5% and 15.4%
  f4/80+ (%): 6.98% and 7.38% and 21.2% and 6.4% and 16.3% and 14.9% and 17.1%
  gr-1+ (%): 6.98% and 5.74% and 9.62% and 14.5% and 6.12% and 11.4% and 10%
[5]; [10]
  Il-6: 2.766 and 2.25 and 1.456 and 1.055 and 1.808 and 1.047
  Il-17: 3.654 and 3.3461 and 1.6638 and 1.675 and 2.194 and 1.456 and 1.44 and 2.099
  Il-23: 1.246 and 3.908 and 1.924 and 1.869 and 2.972 and 1.28 and 1.3835 and 2.162
  Mcp1: 1.522 and 3.593 and 1.038 and 1.619 and 1.9672 and 1.4511
  Tnf-α: 18.081 and 1.569 and 15.9712 and 7.287 and 5.139 and 4.495 and 3.411
[5]; DSS colitis mice, histology score, individual animals, Fig.5c
  HE: 5 and 10 and 8 and 7 and 9
[5]; DSS colitis mice, individual animals, Fig.5b
  colon length (cm): 5.8 cm and 7.1 cm and 7 cm and 6.3 cm and 6.4 cm and 5.3 cm
[6]
  change of concentration in the fecal content by antibiotic treatment: significantly reduced
[7]; TCS-exposed human subjects, n=7 urine samples
  Profile in urine (%): 1.57%
[7]; TCS-exposed human subjects, n=23 stool samples
  Profile in stool (%): 99.16%
[7]; [11]
  TCS metabolites in human stool: < LOD and 12.62 pmol/ g stool and 10.84 pmol/ g stool and 388.08 pmol/ g stool and 57.90 pmol/ g stool
  TCS metabolites in human urine: < LOD
[7]; treatment time 1 month
  TCS metabolites in human stool: 1094.80 pmol/ g stool and 225.14 pmol/ g stool and 1049.03 pmol/ g stool and 626.33 pmol/ g stool and 215.36 pmol/ g stool and 317.47 pmol/ g stool
  TCS metabolites in human urine: < LOD
[7]; treatment time 2 months
  TCS metabolites in human stool: 372.82 pmol/ g stool and 713.18 pmol/ g stool and 245.09 pmol/ g stool and 96.24 pmol/ g stool and 905.85 pmol/ g stool
  TCS metabolites in human urine: 8.55 nM urine
[7]; treatment time 3 months
  TCS metabolites in human stool: 515.81 pmol/ g stool and 334.49 pmol/ g stool and 515.22 pmol/ g stool and 400.99 pmol/ g stool and 445.98 pmol/ g stool and 105.82 pmol/ g stool
  TCS metabolites in human urine: < LOD
[7]; treatment time 4 months
  TCS metabolites in human stool: 633.76 pmol/ g stool and 67.29 pmol/ g stool and 968.25 pmol/ g stool and 633.96 pmol/ g stool and 135.75 pmol/ g stool and 295.56 pmol/ g stool
  TCS metabolites in human urine: 3.06 nM urine and 6.42 nM urine and 11.23 nM urine and 5.52 nM urine
[7]; [12]
  average molar concentration ratio: 99.2%
  concentration of free TCS measured in stool (highest): ≤ 1 pmol/mg tissue
  concentration of free TCS measured in stool (highest), equated: ~ 1 µM
[7]; [13]
  TCS concentrations in urine: low-nM range
  average molar concentration ratio: 1.6%
